Assay results: paper PMC9182378, “Bicyclic Isoxazoline Derivatives: Synthesis and Evaluation of Biological Activity” (Molecules, 2022)

Experiments:
MCF-7 = test: MTT assay cytotoxicity; format: cell-based; conditions: Homo sapiens, MCF7, MCF-7 (breast cancer), 72 h
Hek293t = test: MTT assay cytotoxicity; format: cell-based; conditions: Homo sapiens, HEK-293T, Hek293t (embryonic kidney, normal), 72 h
HCT-116 = test: MTT assay cytotoxicity; format: cell-based; conditions: Homo sapiens, HCT-116 (colon cancer), 72 h
A-549 = test: MTT assay cytotoxicity; format: cell-based; conditions: Homo sapiens, A549, A-549 (lung cancer), 72 h
WI38 = test: MTT assay cytotoxicity; format: cell-based; conditions: Homo sapiens, WI-38, WI38 (fibroblasts, normal), 72 h
[1] = tested on: cancer or normal cell lines; test: MTT assay cytotoxicity, summary over the cell line panel; conditions: for IC50: read-out: IC50 against cancer cell lines (range over compounds and lines); for toxicity against cancer or normal cell lines: either cancer or normal cell lines
in vitro = conditions: dog
E. coli = test: Minimum inhibitory concentration (CLSI); format: cell-based, Escherichia coli
St. aureus [2] = test: Minimum inhibitory concentration (CLSI); format: cell-based, Staphylococcus aureus; conditions: ATCC 29213 strain used for MIC
Method: Minimum inhibitory concentrations (MIC) were determined for the selected active strains according to the Performance Standards for Antimicrobial Susceptibility Testing (CLSI). The Staphylococcus aureus ATCC 29213 strain was used for MIC measurements. Amphotericin B, clotrimazole, vancomycin and ampicillin were used as positive control.

B. subtilis [3] = test: Minimum inhibitory concentration (CLSI); format: cell-based, Bacillus subtilis
C. albicans [4] = test: Agar-diffusion assay (zone of inhibition); conditions: Candida albicans, CBS8836, 24 h
Method: (§1) Initial screening of antimicrobial activity was performed by using agar-diffusion assay against a number of microorganisms: fungi (Aspergillus niger INA 00760), yeast (Candida albicans CBS 8836), gram-positive bacteria (Bacillus subtilis ATCC 6633, Staphylococcus aureus ATCC 25923) and gram-negative bacteria (Escherichia coli ATCC 25922). For the bacterial strains, the agar-diffusion method on the Mueller–Hinton medium was performed using direct colony suspension, equivalent to a 0.5 McFarland standard as inoculate. For the fungal test-strains, the Sabouraud medium was used with 0.2% glucose, inoculated with direct colony suspension (10^6 CFU/100 mL). The tested compounds were applied on Petri dishes on sterile paper disks (6 mm); 100 µg/disk inhibition zones were measured after 24 h incubation at 37 °C. As a positive control, standard antibiotic disks containing 30 µg vancomycin (for B. subtilis), 10 µg gentamicin (for E. coli), and 40 µg fluconazole (for A. niger and C. albicans) were used.

A. niger [5] = test: Agar-diffusion assay (zone of inhibition); conditions: Aspergillus niger, 24 h
Method: as §1

C. albicans [6] = test: Minimum inhibitory concentration (CLSI); format: cell-based, Candida albicans
St. aureus [7] = test: Agar-diffusion assay (zone of inhibition); conditions: Staphylococcus aureus, ATCC25923, 24 h
Method: as §1

A. niger [8] = test: Minimum inhibitory concentration (CLSI); format: cell-based, Aspergillus niger
B. subtilis [9] = test: Agar-diffusion assay (zone of inhibition); conditions: Bacillus subtilis, ATCC6633, 24 h
Method: as §1

[10] = tested on: Rimantadine-resistant M2 proton channel; parameters: method as in PMID 27187859; conditions: cited from earlier work

Structure (SMILES)	IC50 (MCF-7) [µM]	melting point	IC50 (HCT-116) [µM]	IC50 (A-549) [µM]	IC50 (WI38) [µM]	also measured
O=S(=O)(NC1=NOC2(CCCCCCC2)C1)c1ccc(F)cc1F [Compound 5h, 2,4-Difluoro-N-(1-oxa-2-azaspiro[4.7]dodec-2-en-3-yl)benzenesulfonamide]	94.7 ± 15.5	118 to 119 °C	97.1 ± 34	77.1 ± 10.2		IC50 (Hek293t): 60 ± 17 µM
O=S(=O)(NC1=NOC2(CCCCCCC2)C1)c1ccccc1 [Compound 5c, N-(1-Oxa-2-azaspiro[4.7]dodec-2-en-3-yl)benzenesulfonamide]	116 ± 30	156 to 157 °C	63 ± 18	163	113	
O=S(=O)(NC1=NOC2(CCCCCCC2)C1)c1cccnc1 [Compound 5l, N -(1-Oxa-2-azaspiro[4.7]dodec-2-en-3-yl)pyridine-3-sulfonamide]	> 150	145 to 146 °C	133 ± 68	> 150		IC50 (Hek293t): > 500 µM
CC(=O)Nc1ccc(S(=O)(=O)NC2=NOC3(CCCCCCC3)C2)cc1 [Compound 5g, N-(4-(N-1-Oxa-2-azaspiro[4.7]dodec-2-en-3-ylsulfamoyl)phenyl)acetamide]	54.5 ± 15	171 to 173 °C (dec.)	41.3 ± 17	54 ± 14		IC50 [1]: 17.7 to 58.8 µM; IC50 (Hek293t): 30.4 ± 14.5 µM
NC1=NOC2(CCCCCCC2)C1 [Compound 3, 1-Oxa-2-azaspiro[4.7]dodec-2-en-3-amine]	> 150		> 500	> 150	> 150	toxicity against cancer or normal cell lines [1]: not toxic; CC50 (in vitro): > 550 µM
CC1(C)S[C@@H]2[C@H](NC(=O)[C@H](N)c3ccccc3)C(=O)N2[C@H]1C(=O)O [Ampicillin, reference compound]						MIK (E. coli): 2 to 8 µg/mL
O=S(=O)(Cc1ccccc1)NC1=NOC2(CCCCCCC2)C1 [Compound 5b, N-(1-Oxa-2-azaspiro[4.7]dodec-2-en-3-yl)-1-phenylmethanesulfonamide]	138 ± 25	68 to 70 °C	> 200		> 500	
CC(N)C12CC3CC(CC(C3)C1)C2 (stereo not drawn) [Rimantadine, reference compound]						CC50 (in vitro): 406 ± 26 µM
CN[C@H](CC(C)C)C(=O)N[C@H]1C(=O)N[C@@H](CC(N)=O)C(=O)N[C@H]2C(=O)N[C@H]3C(=O)N[C@H](C(=O)N[C@H](C(=O)O)c4cc(O)cc(O)c4-c4cc3ccc4O)[C@H](O)c3ccc(c(Cl)c3)Oc3cc2cc(c3O[C@@H]2O[C@H](CO)[C@@H](O)[C@H](O)[C@H]2O[C@H]2C[C@](C)(N)[C@H](O)[C@H](C)O2)Oc2ccc(cc2Cl)[C@H]1O [Vancomycin, reference compound]						MIK (St. aureus [2]): 0.5 to 2 µg/mL; MIK (B. subtilis [3]): 0.25 to 1 µg/mL
O=[N+]([O-])C1=NOC2CCCCCCC12 (stereo not drawn) [Compound 2, 3-Nitro-3a,4,5,6,7,8,9,9a-octahydrocycloocta[d]isoxazole]	35.4 ± 4.5	52 to 53 °C	17.7 ± 5	40.4 ± 2.5	27.4 ± 4	IC50 [1]: 17.7 to 58.8 µM; zone of inhibition at 100 µg/disc (C. albicans [4]): 19 mm; MIK (E. coli): > 256 µg/mL; zone of inhibition at 100 µg/disc (A. niger [5]): 15 mm; MIK (C. albicans [6]): 32 µg/mL; zone of inhibition at 100 µg/disc (St. aureus [7]): 25 mm; MIK (St. aureus [2]): 8 to 16 µg/mL; MIK (A. niger [8]): 16 µg/mL; MIK (B. subtilis [3]): 32 µg/mL; zone of inhibition at 100 µg/disc (B. subtilis [9]): 16 mm
C[C@@H]1[C@H](O)[C@@H](C)/C=C/C=C/C=C/C=C/C=C/C=C/C=C/[C@H](O[C@@H]2O[C@H](C)[C@@H](O)[C@H](N)[C@@H]2O)C[C@@H]2O[C@](O)(C[C@@H](O)C[C@@H](O)[C@H](O)CC[C@@H](O)C[C@@H](O)CC(=O)O[C@H]1C)C[C@H](O)[C@H]2C(=O)O [Amphotericin B, reference compound]						MIK (C. albicans [6]): 2 µg/mL; MIK (A. niger [8]): 0.04 to 1.5 µg/mL
CS(=O)(=O)NC1=NOC2(CCCCCCC2)C1 [Compound 5a, N-(1-Oxa-2-azaspiro[4.7]dodec-2-en-3-yl)methanesulfonamide]		110 to 111 °C				
CC1CCC2(CC1)SC(N)=NC2(C)C (stereo not drawn) [A, spirothiazamenthane]						activity against the Rimantadine-resistant M2 proton channel [10]: inactive
O=S(=O)(NC1=NOC2(CCCCCCC2)C1)c1cccs1 [Compound 5k, N -(1-Oxa-2-azaspiro[4.7]dodec-2-en-3-yl)thiophene-2-sulfonamide]	> 150	149 to 151 °C	131 ± 80	111 ± 20		IC50 (Hek293t): 65.5 ± 13.5 µM
NC1=NOC2CCCCCCC12 (stereo not drawn) [Compound 4, 3a,4,5,6,7,8,9,9a-Octahydrocycloocta[d]isoxazol-3-amine]	> 150		> 500	> 150	> 150	toxicity against cancer or normal cell lines [1]: not toxic; CC50 (in vitro): > 1790 µM
Clc1ccccc1C(c1ccccc1)(c1ccccc1)n1ccnc1 [Clotrimazole, reference compound]						MIK (C. albicans [6]): 4 µg/mL
O=S(=O)(NC1=NOC2(CCCCCCC2)C1)c1ccc2c(c1)OCCO2 [Compound 5f, N-(1-Oxa-2-azaspiro[4.7]dodec-2-en-3-yl)-2,3-dihydrobenzo[b][1,4]dioxine-6-sulfonamide]	64.1 ± 8	192 to 194 °C	23.6 ± 4.5	119	42 ± 8.6	
Cc1cc(C)c(S(=O)(=O)NC2=NOC3(CCCCCCC3)C2)c(C)c1 [Compound 5e, 2,4,6-Trimethyl-N-(1-oxa-2-azaspiro[4.7]dodec-2-en-3-yl)benzenesulfonamide]	79 ± 36	135 to 136 °C	70.1 ± 11.2	61 ± 21	95.5 ± 14.3	
Cc1ccc(S(=O)(=O)NC2=NOC3(CCCCCCC3)C2)cc1 [Compound 5d, 4-Methyl-N-(1-oxa-2-azaspiro[4.7]dodec-2-en-3-yl)benzenesulfonamide]	94 ± 30	122 to 124 °C		143 ± 50	54.6 ± 7	
O=[N+]([O-])c1ccccc1S(=O)(=O)NC1=NOC2(CCCCCCC2)C1 [Compound 5i, 2-Nitro-N-(1-oxa-2-azaspiro[4.7]dodec-2-en-3-yl)benzenesulfonamide]		164 to 165 °C				
O=[N+]([O-])C1=NOC2(CCCCCCC2)C1 [Compound 1, 3-Nitro-1-oxa-2-azaspiro[4.7]dodec-2-ene]	58.8 ± 5	55 to 57 °C	20.8 ± 5	57.1 ± 7	42.2 ± 13	IC50 [1]: 17.7 to 58.8 µM; zone of inhibition at 100 µg/disc (C. albicans [4]): 24 mm; MIK (E. coli): > 256 µg/mL; zone of inhibition at 100 µg/disc (A. niger [5]): 15 mm; MIK (C. albicans [6]): 8 µg/mL; zone of inhibition at 100 µg/disc (St. aureus [7]): 15 mm; MIK (St. aureus [2]): 32 µg/mL; MIK (A. niger [8]): 8 µg/mL; MIK (B. subtilis [3]): 32 µg/mL; zone of inhibition at 100 µg/disc (B. subtilis [9]): 12 mm
O=S(=O)(NC1=NOC2(CCCCCCC2)C1)c1ccc2ccccc2c1 [Compound 5j, N-(1-Oxa-2-azaspiro[4.7]dodec-2-en-3-yl)naphthalene-2-sulfonamide]	26.8 ± 3.5	143 to 145 °C	19 ± 3	27.5 ± 4.2		IC50 [1]: 17.7 to 58.8 µM; IC50 (Hek293t): 23.1 ± 6.5 µM
